Data set [1] deals with 3T3-L1. Nature of the data set: Induction of cell cycle arrest in mouse 3T3-L1 cells assessed as reduction in number of cells at G1 phase at 10 uM incubated for 16 to 24 hrs by flow cytometry analysis. In kind it is functional, cell-based. The settings on record: time 16-24 hrs.
In data set [2] the test system is 3T3-L1. The data set is described as follows: Induction of cell cycle arrest in mouse 3T3-L1 cells assessed as reduction in percentage of cells at G1 phase at 10 uM incubated for 16 to 24 hrs by flow cytometry analysis. The settings on record: time 16-24 hrs. In kind it is functional, cell-based.
Data set [3] deals with 3T3-L1. Nature of the data set: Inhibition of adipogenesis in mouse 3T3-L1 cells assessed as downregulation of FASN expression at 10 uM measured at upto 5 days by immunoblotting analysis. In kind it is functional, cell-based. The settings on record: time <= 5.0 day.
The nature of data set [4]: Tmax in Golden Syrian hamster at 100 mg/kg, po measured upto 24 hrs by LC-MS/MS analysis. In kind it is ADME, organism-based, Mesocricetus auratus. As to conditions: in vivo.
The test system of data set [5] is 3T3-L1. The data set is described as follows: Induction of cell cycle arrest in mouse 3T3-L1 cells assessed as reduction in CDK2 level at 10 uM incubated for 16 to 24 hrs by immunoblotting analysis. In kind it is functional, cell-based. As to conditions: time 16-24 hrs.
Data set [6] relates to 3T3-L1. Nature of the data set: Cytotoxicity against mouse 3T3-L1 cells assessed as cell viability at 10 uM incubated for 48 hrs by MTT assay. In kind it is toxicity, cell-based. The settings on record: 3t3-l1, 48 h.
For the next data set, the system named is Syrian golden hamster. Nature of the data set: Anti-dyslipidemic activity in HFD-induced Golden Syrian hamster model assessed as decrease in eWAT accumulation at 100 mg/kg, po administered for 7 days. In kind it is functional, organism-based. The settings on record: Mesocricetus auratus, time 7.0 day.
The test system of data set [7] is 3T3-L1. Nature of the data set: Cytotoxicity against mouse 3T3-L1 cells assessed as cell viability upto 100 uM incubated for 48 hrs by MTT assay. As to conditions: 3t3-l1, 48 h. In kind it is toxicity, cell-based.
The test system of data set [8] is 3T3-L1. The data set is described as follows: Cytotoxicity against mouse 3T3-L1 cells assessed as cell viability upto 50 uM incubated for 48 hrs by MTT assay. As to conditions: 3t3-l1, 48 h. In kind it is toxicity, cell-based.
In data set [9] the test system is 3T3-L1. The data set is described as follows: Inhibition of adipogenesis in mouse 3T3-L1 cells assessed as downregulation of PPARgamma expression at 10 uM measured at upto 7 days by immunoblotting analysis. In kind it is functional, cell-based. The settings on record: time <= 7.0 day.
In data set [10] the test system is 3T3-L1. The data set is described as follows: Anti-adipogenic activity in mouse 3T3-L1 cells assessed as reduction in lipid accumulation at 10 uM measured at upto 5 days. In kind it is functional, cell-based. The settings on record: time <= 5.0 day.
For data set [11], the system named is 3T3-L1. Nature of the data set: Inhibition of adipogenesis in mouse 3T3-L1 cells assessed as downregulation of PPARgamma expression at 10 uM measured at upto 5 days by immunoblotting analysis. In kind it is functional, cell-based. The settings on record: time <= 5.0 day.
For data set [12], the system named is 3T3-L1. Nature of the data set: Anti-adipogenic activity in mouse 3T3-L1 cells assessed as reduction in lipid accumulation at 10 uM measured at upto 7 days. In kind it is functional, cell-based. The settings on record: time <= 7.0 day.
The nature of data set [13]: Cmax in Golden Syrian hamster at 100 mg/kg, po measured upto 24 hrs by LC-MS/MS analysis. In kind it is ADME, organism-based, Mesocricetus auratus. As to conditions: in vivo.
Data set [14] concerns 3T3-L1. The data set is described as follows: […] of Wnt/beta-catenin signalling in mouse 3T3-L1 cells assessed as increase in GSK3beta level at 10 uM by immunoblotting analysis. In kind it is cell-based.

Active and inactive are the calls of the source. No cut-off for these calls is given here.

We go through 1 molecule from ChEMBL document CHEMBL6114991, “Design, synthesis, and biological evaluation of novel quinoline carboxylic acid based styryl/alkyne hybrid molecule as a potent anti-adipogenic and antidyslipidemic agent via activation of Wnt/β-catenin pathway” (Eur J Med Chem, 2025).

In the case of `Cc1ccc(/C=C/c2ccc(-c3cc(C(=O)O)c4cc(F)ccc4n3)cc2)cc1`, the outcome in the data set on 3T3-L1 [1], in the data set on 3T3-L1 [2], in the data set on 3T3-L1 [5], with Syrian golden hamster, in the data set with 3T3-L1 [10] and with 3T3-L1 [12] was Active. Further, the inhibition entry in the data set with 3T3-L1 [3], in the data set on 3T3-L1 [9], with 3T3-L1 [11] and with 3T3-L1 [14] was “Active” each time. Further, in data set [4], the Tmax turned out to be 15 min. For the same molecule, the Activity entry in the data set with 3T3-L1 [6] is given as “Non-toxic”; with 3T3-L1 [7], “Toxic”; in the data set with 3T3-L1 [8] it was “Non-toxic”. This molecule also gave a maximum concentration (Cmax) in [13] of 17700 ng/mL.
